These results are taken from patent US20100273806A1, “TETRAHYDROCYCLOPENTA[B]INDOL-3-YL CARBOXYLIC ACID DERIVATIVES USEFUL IN THE TREATMENT OF AUTOIMMUNE AND INFLAMMATORY DISORDERS” (ARENA PHARMACEUTICALS, INC., priority 2007, published 2010).

Data set [1] deals with patients with multiple sclerosis. The settings on record: Phase II, relapsing-remitting multiple sclerosis; cited from earlier work.
Data set [2] concerns mice. The settings on record: oral administration to mice; cited from earlier work.
The test system of data set [3] is C57BL/6 mice. The settings on record: prophylactic oral administration, 1 mg/kg, three times a week; cited from earlier work.
In data set [4] the target is S1P3 receptor (Homo sapiens, UniProt Q99500). The settings on record: due to its agonism of the S1P3 receptor; cited from earlier work.
Data set [5] deals with experimental autoimmune uveoretinitis. The note with it: short-term high dose; cited from earlier work.
Data set [6] concerns Female C57BL/6 mice. Nature of the data set: MOG-induced EAE in mice. It counts as in vivo, mouse. The settings on record: 30 mg/kg orally once a day from day 3 until day 21, compared with vehicle; FIG. 5. Here is the method:
Animals: Female C57BL/6 mice (8 to 10 weeks of age at start of study) (Jackson Laboratory, Bar Harbor, Me.) were housed four per cage and maintained in a humidity- (40-60%) and temperature- (68-72° F.) controlled facility on a 12 h:12 h light/dark cycle (lights on at 6:30 am) with free access to food (Harlan Teklad, Orange, Calif., Rodent Diet 8604) and water. Mice were allowed one week of habituation to the animal facility before testing.
Induction of EAE: Mice were immunized subcutaneously, 50 μL per hind flank, with a total of 100 μg MOG35-55peptide emulsified 1:1 with Complete Freund's adjuvant containing 4 mg/ml heat-killed Mycobacterium tuberculosis. Mice also received 200 ng pertussis toxin intraperitoneally on the day of immunization and 48 h later.
Clinical scoring: Severity of disease symptoms was scored as follows (in increasing order of severity): 0=normal; 1=limp tail OR hind limb weakness; 2=limp tail AND limb weakness/weakness of 2 or more limbs; 3=severe limb weakness or single limb paralysis; 4=paralysis of 2 or more limbs; 5=death.
Drug treatment: Mice were dosed orally, with vehicle or test compound, once a day from day 3 until day 21. Dosing volume is 5 ml/kg. Test compound was dosed at 30 mg/kg. […] Mice were monitored daily from day 7 onward for disease symptoms. After the last dose on day 21, disease progression was monitored daily for 2 more weeks.

For data set [7], the system named is female NOD/Ltj mice. Nature of the data set: Cyclophosphamide induced type I diabetes in NOD mice. It counts as in vivo, mouse. The note with it: 30 mg/kg orally once a day from day 0 until day 25, compared with vehicle; FIG. 6. Here is the method: Animals: Baseline blood glucose measurements were taken from 9-10 week old female NOD/Ltj mice (Jackson Laboratory, Bar Harbor, Me.) to ensure that they were normoglycemic (blood glucose is 80-120 mg/dL) prior to initiation of the experiment. Blood glucose was measured from tail bleeds using a one touch ultra kit and test strips (LifeScan, Milpitas, Calif.).
Cyclophosphamide induction of Type I diabetes: On day 0 and day 14, normoglycemic NOD mice were injected intraperitoneally with 4 mg cyclophosphamide monohydrate (200 mg/kg) dissolved in 0.9% saline. If mice were diabetic (blood glucose is >250 mg/dL) they were not given a booster dose of cyclophosphamide on day 14.
Drug Treatment: Mice were dosed orally, with vehicle or test compound, once a day from day 0 until day 25. Compounds were suspended in 0.5% methyl cellulose vehicle using a sonicator to ensure uniform suspension. Mice were weighed twice weekly and were dosed according to weight. Dosing volume was 5 mL/kg. Test compound was dosed at 30 mg/kg. Blood glucose was measured twice weekly. After dosing was completed at day 25, the mice continued to be monitored and blood glucose measurements were taken once a week for 3 weeks.

Data set [8] has as its system Female Lewis rats. Nature of the data set: Collagen-induced arthritis in rats (ankle diameter). Type of data set: in vivo, rat. The note with it: 3, 10 and 30 mg/kg p.o., q.d., day 0 through day 16, compared with vehicle; FIG. 4. The procedure: Female Lewis rats were used in this study. Acclimated animals were anesthetized with isoflurane and given the first collagen injection (day 0). On day 6, they were anesthetized again for the second collagen injection. Collagen was prepared by making a 4 mg/mL solution in 0.01 N acetic acid. Equal volumes of collagen and incomplete Freund's adjuvant were emulsified by hand mixing until a bead of this material held its form when placed in water. Each animal received 300 μL of the mixture each time, spread over 3 subcutaneous sites on the back.
Treatment (p.o., q.d., 5 mL/kg dosing volume) began on day 0 and continued through day 16 with vehicle or compounds given at 24 h intervals. Rats were weighed on days 0, 3, 6 and 9 through 17 and caliper measurements of the ankles taken on days 9 through 17. The 2nd enantiomer of Compound 7 (isolated after resolution of compound 7 by HPLC, with a retention time of 24 min per the conditions reported in Example 1.22) was dosed at 3, 10 and 30 mg/kg.

Data set [9] deals with C57BL/6 mice (recipients of Balbc/J skin grafts). Briefly: Mouse skin allograft survival. Type of data set: in vivo. The settings on record: 3, 10 and 30 mg/kg orally once a day, compared with vehicle; FIG. 3. Here is the method: Animals: Female BALBc/J mice (6 to 7 weeks of age at start of study) (Jackson Laboratory, Bar Harbor, Me.) were housed four per cage and maintained in a humidity- (40-60%) and temperature- (68-72° F.) controlled facility on a 12 h:12 h light/dark cycle (lights on at 6:30 am) with free access to food (Harlan Teklad, Orange, Calif., Rodent Diet 8604) and water. Female C57BL/6 mice (8 to 10 weeks of age at start of study) (Jackson Laboratory, Bar Harbor, Me.) were similarly housed and maintained. Mice were allowed one week of habituation to the animal facility before testing. […]
Clinical scoring: Skin allografts were inspected and digital images recorded daily until rejection, which was defined as the first day on which more than 80% of the graft is necrotic. […] In an optional related study, on posttransplantation day 5 isolated lymphocytes from peripheral lymph nodes and spleen were counted and characterized for activation markers (e.g., T-cell activation markers) by flow cytometry. Also on day 5, grafts were removed from transplanted recipients, cut into small fragments, digested with collagenase and sedimented over Ficoll-Paque (Pharmacia Biotech, Uppsala, Sweden) to isolate graft-infiltrating lymphocytes, which were counted and characterized for activation markers (e.g., T-cell activation markers) by flow cytometry. […]

SMILES strings stand for the structures.

Chain of S1P3 receptor (Q99500 whole entry): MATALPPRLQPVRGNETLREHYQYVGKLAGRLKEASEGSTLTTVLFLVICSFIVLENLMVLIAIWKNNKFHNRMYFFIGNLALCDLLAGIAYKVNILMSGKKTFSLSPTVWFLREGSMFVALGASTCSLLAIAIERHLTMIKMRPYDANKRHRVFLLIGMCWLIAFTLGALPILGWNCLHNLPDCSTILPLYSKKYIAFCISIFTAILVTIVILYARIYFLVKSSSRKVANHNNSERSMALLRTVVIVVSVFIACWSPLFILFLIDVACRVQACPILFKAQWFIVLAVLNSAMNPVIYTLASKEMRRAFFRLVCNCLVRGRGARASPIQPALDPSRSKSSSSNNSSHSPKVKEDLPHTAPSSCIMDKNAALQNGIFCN

With `CCCCCCCCc1ccc(CCC(N)(CO)CO)cc1` [FTY720], the “number of lesions detected by MRI and clinical disease activity” value in data set [1] is “reduce the number of lesions detected by magnetic resonance imaging (MRI) and clinical disease activity”. For the same compound, in data set [2], the VEGF-induced vascular permeability entry is reported as “potently blocked VEGF-induced vascular permeability”. For the same compound, in data set [3], the “development of EAMG” value is “completely prevented the development of experimental autoimmune myasthenia gravis (EAMG)”. The “adverse event in clinical trials” value in data set [4] was “transient asymptomatic bradycardia”. In data set [5], the ocular infiltrates entry is recorded as “rapidly reduced ocular infiltrates”.

In the case of `N#Cc1cc(OC(F)(F)F)cc(-c2nc(-c3ccc4[nH]c5c(c4c3)CCC5CC(=O)O)no2)c1` (stereo not drawn) [2nd enantiomer of Compound 7, 2-(7-(5-(3-cyano-5-(trifluoromethoxy)phenyl)-1,2,4-oxadiazol-3-yl)-1,2,3,4-tetrahydrocyclopenta[b]indol-3-yl)acetic acid], in [6], the “severity of disease symptoms in EAE” value was “exhibited activity in the mouse EAE assay”. Also, the “incidence of diabetes / promotion of normoglycemia” value in [7] is listed as “exhibited activity in the NOD mouse type I diabetes assay”. Further, in [8], the mean ankle diameter entry is listed as “exhibited activity for reducing mean ankle diameter in the rat”. Also, the “delay of time of rejection of the skin allograft” value in data set [9] is reported as “exhibited activity in the mouse skin allograft assay”.
